Reference: patent US11603568B2, “NOX2 as a biomarker of radiotherapy efficiency in cancer patients” (Institut Gustave-Roussy, priority 2016, dated 2023)

Experiments:
Type in all cases: cell-based
[1] = tested on: murine RAW264.7 macrophages; assay: Immunoblots of ATMS1981*, ATM, IRF5 and NOX2 expression in murine RAW264.7 macrophages; details: for ATM activation (ATMS1981*) by the agent / IRF5 expression induced by the agent: 24 hours, 10 μM CDDP, 200 ng/ml NCZ, 10 μM Olaparib (FIGS. 3E, 3H-3J)
Protocol: (§1) The human monocyte cell line THP1 cells and the murine macrophage-like RAW264.7 cells were maintained in RMPI-1640-Glutamax medium (Life technology) supplemented with 10% heat-inactivated fetal bovine serum (Hycultec GmbH) and 100 UI/ml penicillin-streptomycin (Life technology). To obtain THP1 macrophages, THP1 monocytes were differentiated with 320 nM of PMA (Invivogen) during 24 h. Then, cells were washed three times to remove PMA and non-adherent cells. For the generation of monocytes-derived macrophages (hMDM), buffy coats from healthy donor blood were obtained from the French blood bank (Etablissement Français du Sang) under the control of convention with the INSERM. In accordance with French law, written informed consent for the use of cells for clinical research was obtained from each donor. Monocytes were obtained from buffy coats and were differentiated into macrophages by using human AB serum in macrophage medium, as previously described. […] All cells were maintained under 5% CO2 humidified atmosphere at 37° C. For hypoxic experiments, cells were incubated in the hypoxic hood (Scitive) under 1% 02, with 5% CO2 humidified atmosphere at 37° C. Dimethyl Sulfoxide (DMSO), Lipopolysaccharides (LPS), Dimethyloxalylglycine (DMOG), NAcetyl-L-cysteine (NAC), Diphenyleneiodonium chloride (DPI), Neocarzinostatin (NCZ), cis-Diammineplatinum(II) dichloride (CDDP) were purchased from Sigma-Aldrich. Recombinant murine IFN-γ (mIFN-γ) was obtained from PeproTech Recombinant Human IFN-γ was from R&D Systems. KU55933 was from Tocris Bioscience. Mn(III)tetrakis (4-benzoic acid) porphyrin Chloride (MnTBAP) was from Calbiochem. Olaparib was from Selleckchem. Phorbol 12-myristate 13-acetate (PMA) was from Invivogen.
(§2) Human MDM (10^6) were activated by treatment with […] recombinant human IFN-γ for 24 h. THP1 monocytes were differentiated into macrophages by 320 nM PMA for 24 h. Then, macrophages were activated with 20 ng/ml recombinant human IFN-γ or 100 ng/ml LPS during 24 h. RAW264.7 macrophages were activated with 20 ng/ml recombinant murine IFN-γ or 100 ng/ml LPS for 24 h.
(§3) Cells were seeded in 6-well plates, 12-well plates or 25 cm^2 flasks and irradiated with gamma-ray irradiator IBL-637 (Cs137, 1 Gy/min, gamma CIS-Bio International, IBA, Saclay, France) or with X-ray irradiator (1Gy/min, X-RAD 320, Precision X-Ray). Cells were harvested at indicated time points (hMDMs and THP1 macrophages at 96 h, RAW264.7 macrophages at 6 h) after irradiation for subsequent experiments.
(§4) Cells were washed twice with cold PBS and lysed with NEHN buffer (0.5% NP40, 20% Glycerol, 300 mM NaCl, 20 mM Herps, pH 7.5, and 1 mM EDTA) complemented with 2.5 mM DTT and the protease and phosphatase inhibitor (Roche) at 4° C. 5-20 μg of proteins were separated by NuPAGE 4-12% or 10% SDS-PAGE gel (Invitrogen) and then were transferred onto a nitrocellulose membrane (0.2 Micron, Bio-Rad). Membranes were blocked with 5% nonfat milk or 5% Bovine Serum Albumine (BSA) in Tris-buffered saline and 0.1% Tween 20 (TBS-T) at room temperature for 1 h and then subsequently probed with primary antibodies (1/5000-1/1000) overnight at 4° C. Then, membranes were incubated with appropriate horseradish peroxidase-conjugated anti-rabbit or anti-mouse IgG (SouthernBiotech) for 1 h at room temperature.

hMDM = assay: Immunoblots of ATMS1981*, ATM, IRF5 and NOX2 expression in human monocyte-derived macrophages (hMDM)
Protocol: as §1, with “Dimethyl Sulfoxide (DMSO), Lipopolysaccharides (LPS), Dimethyloxalylglycine (DMOG), NAcetyl-L-cysteine (NAC), Diphenyleneiodonium chloride (DPI), Neocarzinostatin (NCZ), cis-Diammineplatinum(II) dichloride (CDDP) were purchased from Sigma-Aldrich. Recombinant murine IFN-γ (mIFN-γ) was obtained from PeproTech Recombinant Human IFN-γ was from R&D Systems. KU55933 was from Tocris Bioscience. Mn(III)tetrakis (4-benzoic acid) porphyrin Chloride (MnTBAP) was from Calbiochem. Olaparib was from Selleckchem. Phorbol 12-myristate 13-acetate (PMA) was from Invivogen.” left out

macrophages = assay: Macrophage viability (LDH release); details: data not shown; cells and concentrations as in the activation experiments
Description: The release of LDH in the supernatants of cultured cells was detected using Cytotoxicity Detection KitPLUS (LDH) from Roche according to the manufacturers' instructions.

[2] = tested on: murine RAW264.7 macrophages; assay: Detection of ROS production (H2DCFDA staining, flow cytometry); details: for ROS production after IR or mIFN-γ in presence of the inhibitor: 2 Gy single dose or 20 ng/ml mIFN-γ, NAC 1 μg/ml, DPI 200 nM
Protocol: Hydrogen peroxide and anion superoxide production were determined by staining cells with 5 μM of 2,7-dichlorodihydrofluorescein diacetate (H2DCFDA, Sigma) for 40 min at 37° C. Cells were then washed twice with Hanks' balanced salt solution (HBSS, from Thermo Fisher Scientific) and suspended in cold HBSS solution containing 1% FBS for FACS analysis.
Considering that reactive oxygen species (ROS) have been involved in both ATM activation and macrophage differentiation, the role of ROS production during macrophage activation was investigated.

[3] = tested on: PMA-treated human THP1 monocytes; assay: Immunoblots of ATMS1981*, ATM, IRF5 and NOX2 expression in PMA-treated human THP1 monocytes; details: for ATM activation (ATMS1981*) by the agent / IRF5 expression induced by the agent: 24 hours, 20 ng/ml human IFN-γ, 100 ng/ml LPS, 10 μM CDDP (FIGS. 3D, 3F, 3G)
Protocol: as §1, §2, §3, §4

[4] = tested on: murine RAW264.7 macrophages; assay: Confocal immunofluorescence of DNA damage-associated nuclear foci; details: 24 h treatment; 20 ng/ml mIFN-γ, 100 ng/ml LPS or 10 μM CDDP (FIGS. 3A-3C)
Protocol: Cells were grown on coverslips and were treated as indicated. After treatment, cells were rinsed twice, fixed with 10% neutral buffered formalin (Sigma-Aldrich) for 10 min and then permeabilized with 0.3% Triton X-100 in PBS for 15 min. Cells were then washed twice with PBS and were blocked with 10% FBS in PBS for 1 h at room temperature, followed by incubation with primary antibodies (1/100) in 10% FBS in PBS for 1 h30 min at room temperature. Then, samples were incubated with secondary antibodies using Alexa Fluor-488 green or Alexa Fluor-546 red (1/500, Life Technologies) and Hoechst 33342 for nuclei (1/1000, Thermo Fisher Scientific) in 10% FBS in PBS for 30 min at room temperature. Coverslips were mounted with Fluoromount-G (SouthernBiotech) ant then visualized with Leica TCS SPE confocal microscope (Leica Microsystemes, France).

[5] = 10 μM Olaparib, 2 Gy, 6 hours (FIG. 2P)
[6] = 1 μg/ml NAC, 2 Gy, 6 hours or 20 ng/ml mIFN-γ, 24 hours (FIGS. 4E, 4F)
[7] = 10 μM MnTBAP, 8 Gy single dose, 48 hours (FIG. 4G)

## O=c1cc(-c2cccc3c2Sc2ccccc2S3)oc(N2CCOCC2)c1 [KU55933]
[1]; 20 μM KU55933, 2 Gy single dose, 6 hours (FIG. 2N)
  γ-H2AX and ATMS1981* phosphorylations and the up-regulation of IRF5 expression after irradiation: impaired
hMDM; 10 μM KU55933, 4 Gy single dose, 96 hours (FIG. 2O)
  γ-H2AX and ATMS1981* phosphorylations and the up-regulation of IRF5 expression after irradiation: impaired
macrophages
  macrophage viability: without altering macrophage viability

## c1ccc2c(c1)[I+]c1ccccc1-2 [DPI, Diphenyleneiodonium chloride]
[1]; 200 nM DPI, 2 Gy, 6 hours or 20 ng/ml mIFN-γ, 24 hours (FIGS. 5L, 5M)
  ATMPS1981* and IRF5 up-regulation after IR or mIFN-γ: impaired
[2]
  ROS production after IR or mIFN-γ in presence of the inhibitor: impaired
macrophages
  macrophage viability: without modifying macrophage viability

## N.N.[Cl][Pt][Cl] [Cisplatin, cis-Diammineplatinum(II) dichloride]
[1]; 20 ng/ml mIFN-γ
  ATM activation (ATMS1981*) by the agent: activated ATM
  IRF5 expression induced by the agent: increased IRF5 expression
[3]
  ATM activation (ATMS1981*) by the agent: activated ATM
  IRF5 expression induced by the agent: increased IRF5 expression
[4]
  ATMS1981*+ and γ-H2AX+ nuclear foci: activated ATM

## O=C(c1cc(Cc2n[nH]c(=O)c3ccccc23)ccc1F)N1CCN(C(=O)C2CC2)CC1 [Olaparib]
[1]; [5]
  ATM activation after irradiation: enhancement of ATM activation
  IRF5 expression after irradiation (inflammatory macrophage activation elicited by IR): increased expression of IRF5
[1]; 20 ng/ml mIFN-γ
  ATM activation (ATMS1981*) by the agent: activated ATM
  IRF5 expression induced by the agent: increased IRF5 expression

## CC(=O)N[C@@H](CS)C(=O)O [NAC, NAcetyl-L-cysteine]
[1]; [6]
  activating phosphorylation of ATM (ATMS1981*) after IR or mIFN-γ: inhibited
  increased expression of IRF5 after IR or mIFN-γ: reduced
[2]
  ROS production after IR or mIFN-γ in presence of the inhibitor: blunted the ROS production
macrophages
  macrophage viability: without impacting macrophage viability

## O=C(O)c1ccc(C2=C3C=CC(=N3)C(c3ccc(C(=O)O)cc3)=c3ccc([nH]3)=C(c3ccc(C(=O)O)cc3)c3ccc([n-]3)C(c3ccc(C(=O)O)cc3)c3ccc2[n-]3)cc1.[Cl-].[Mn+3] (stereo not drawn) [MnTBAP, Mn(III)tetrakis (4-benzoic acid) porphyrin Chloride]
[3]; [7]
  activating phosphorylation of ATM (ATMS1981*) after IR: inhibited
  increased expression of IRF5 after IR: reduced
[2]
  ROS production after IR or mIFN-γ in presence of the inhibitor: blunted the ROS production
macrophages
  macrophage viability: without impacting macrophage viability

## COC(=O)CNC(=O)C(=O)OC [DMOG, Dimethyloxalylglycine]
[1]; 500 μM DMOG, 20 ng/ml mIFN-γ, 24 hours (FIG. 4K)
  ATMS1981* and IRF5 expressions reduced after mIFN-γ stimulation: confirmed
[1]; 500 μM DMOG, 2 Gy single dose, 6 hours (FIG. 4I)
  IR-mediated ATMS1981* and IRF5 expressions: reduced

## Neocarzinostatin
[1]; 20 ng/ml mIFN-γ
  ATM activation (ATMS1981*) by the agent: activated ATM
  IRF5 expression induced by the agent: increased IRF5 expression

B1: mIFN-γ: Recombinant murine IFN-γ from PeproTech, classical macrophage activator (protein, UniProt P01580 23-155, looked up)
Interferon gamma: HGTVIESLESLNNYFNSSGIDVEEKSLFLDIWRNWQKDGDMKILQSQIISFYLRLFEVLKDNQAISNNISVIESHLITTFFSNSKAKKDAFMSIAKFEVNNPQVQRQAFNELIRVVHQLLPESSLRKRKRSRC
[1]; 20 ng/ml mIFN-γ, 24 hours (FIG. 5E)
  NOX2 up-regulated (immunoblot): confirmed
[1]; 20 ng/ml mIFN-γ
  ATM activation (ATMS1981*) by the agent: activation of ATM
  IRF5 expression induced by the agent: increased expression of IRF5
[2]; 20 ng/ml mIFN-γ (FIGS. 4C, 4D)
  ROS production induced by the treatment: induced ROS production
[4]
  ATMS1981*+ and γ-H2AX+ nuclear foci: accumulation of ATMS1981*+ and γ-H2AX+ foci

B2: IFN-γ: Recombinant Human IFN-γ from R&D Systems, classical macrophage activator (protein, UniProt P01579 24-161, looked up)
Interferon gamma: QDPYVKEAENLKKYFNAGHSDVADNGTLFLGILKNWKEESDRKIMQSQIVSFYFKLFKNFKDDQSIQKSVETIKEDMNVKFFNSNKKKRDDFEKLTNYSVTDLNVQRKAIHELIQVMAELSPAAKTGKRKRSQMLFRG
hMDM; 4 μg/ml hIFN-γ, 24 hours (FIG. 5B)
  NOX2 up-regulated (immunoblot): confirmed
[3]; 20 ng/ml hIFN-γ, 24 hours (FIG. 5C)
  NOX2 up-regulated (immunoblot): confirmed
[3]
  ATM activation (ATMS1981*) by the agent: activation of ATM
  IRF5 expression induced by the agent: increased expression of IRF5
